Reference: patent US6803233B2, “Model for Alzheimer's disease and other neurodegenerative diseases” (priority 2000, dated 2004)
“Also recorded” adds a separate entry of the source.

Legend:
[1] = tested on: tangle-like formations; test: Electron microscopic immunogold analysis of cultured slices; assay type: cell-based, mouse; details: ZPAD 6 days
Method: Lowicryl resin-embedded ultrathin sections (of 70-80 nm thickness) were picked up on either pioloform-coated nickel slot grids or pioloform-coated 400 mesh nickel grids. The grids were incubated on drops of blocking solution, followed by incubation on drops of primary antibodies (AT8 or PHF-1). After the incubation with primary antibodies, the sections were washed in TBS (three times for 10 min each) and in 50 mM Tris-HCl, pH 7.4, containing 0.9% NaCl (“TBS*”; once for 10 min; TBS* has 50 mM Tris-HCl and 0.9% NaCl without KCl, while TBS has 25 mM Tris-HCl and KCl) ) and incubated on drops of goat anti-mouse IgG coupled to 10 nm gold particles (British BioCell Int.). The secondary antibodies were diluted 1:100 in TBS* containing 0.05% polyethylene glycol 20000 (BDH; Merck) and 1% gelatin for 2 hr at 28° C. After additional washing in TBS* (three times for 10 min each) and PBS (once for 10 min), the sections were post-fixed in 2% glutaraldehyde in PBS for 2 min at room temperature and then washed in bidistilled water (three times for 10 min each). Finally, the sections were contrasted with saturated aqueous uranyl acetate followed by staining with lead citrate. […]

[2] = tested on: reactive microglia; test: ED-1 immunocytochemistry of cultured brain explants; assay type: cell-based, rat; details: ZPAD 20 μM, mevastatin 20 μM or PD98059 50 μM alone, 6 days
Method: Immunocytochemical studies using the monoclonal antibody ED-1 that recognizes reactive microglia were used at 1:1000 dilution following standard immunohistochemical procedures. Microglial activation was determined by measuring cell numbers, optical density, and size of cell bodies using the program NIH Image. Brain tissue was cultured for 12 days and treated with ZPAD (20 μM) in the presence or absence of PD98059 (50 μM) for 6 days (FIG. 18). Cultured explants were then sliced and stained by using monoclonal antibody ED-1 which recognizes reactive microglia, a classical marker of inflammation. […] Cultured brain explants were then sliced and stained by using monoclonal antibody ED-1, a classical marker for reactive microglia and macrophages.

[3] = tested on: MAPK (ERK1/2); test: Immunoblot with anti-active MAPK in cultured hippocampal slices; assay type: cell-based; details: hippocampal slices; 6 days

## N-CBZ-L-phenylalanyl-L-alanine-diazomethyl-ketone [ZPAD]
[1]
  ultrastructure: intracellular inclusions: Numerous intracellular inclusions
[2]
  reaction of microglia (ED-1 staining): triggered significant reaction of microglia
[3]
  activated MAPK (ERK1/2): activated; also recorded: activation
